This note sets out measurements from patent US7763654B2, “Crystal polymorph of hydroxynorephedrin derivative hydrochloride” (Kissei Pharmaceutical Co., Ltd., priority 2005, dated 2010).

Data set [1] is described as follows: Stability Test 1 (60° C.), storage for a week; HPLC, powder X-ray diffraction, appearance. The following applies: for residual percentage (chemical purity %): HPLC; for crystal form: powder X-ray diffraction. The data set is classed as physicochemical. On the procedure: (§1) The powder X-ray diffraction data of each crystal polymorph were measured by X-ray diffractometer RINT 2100 ultima+manufactured by Rigaku Denki Corporation (measuring conditions; CuK α rays, 40 kV in X-ray tube voltage, 40 mA in X-ray tube current). The 2θ value of diffraction pattern by the powder X-ray diffractometry may deviate in some cases by a factor of about 0.5° depending on the sample conditions and measuring conditions. In addition, due to the properties of data, a total diffraction pattern of the powder X-ray diffractometry is important for the identification of crystals. The TG/DTA measurements of each crystal polymorph were conducted by thermogravimetry analyzer (TG/DTA) ThermoPlus 2 series TG8120 manufactured by Rigaku Denki Corporation (measuring conditions; temperature rising rate 10° C./minutes, samplepan (Al), reference (Al2O3), under a nitrogen atmosphere). Melting points of each crystal were searched from differential thermal analysis (DTA) endothermic peak (extrapolation). The solid state C^13-NMR spectrums of each crystal polymorph were measured by AVANCE/DRX500 manufactured by Bruker (measuring conditions; accumulated counts 512 times, contact time 3 msec, repeated time 5 sec, probe 4 mm MAS, observed frequency 125.77 Mhz, spinning rate 10000 Hz).
After ethyl (−)-2-[4-[2-[[(1S,2R)-2-hydroxy-2-(4-hydroxyphenyl)-1-methylethyl]amino]ethyl]-2,5-dimethylphenoxy]-acetate hydrochloride obtained in Example 1 was stored at 60° C. for a week, chemical stability was determined by measuring the residual percentage of ethyl (−)-2-[4-[2-[[(1S,2R)-2-hydroxy-2-(4-hydroxylphenyl)-1-methylethyl]amino]ethyl]-2,5-dimethylphenoxy]acetate hydrochloride by HPLC and polymorphic stability was examined by the powder X-ray diffraction measurement.

Data set [2] is described as follows: Stability Test 2 (140° C.), heating, powder X-ray diffraction. The format is physicochemical. To be noted: after heating to 140° C. On the procedure:
as §1, with “Hz). […]” for “Hz).”

Setting [3] is: after 1 week storage at 60° C., hydrochloride.
[4] abbreviates: after 1 week storage at 60° C., listed as crystal form C, hydrochloride.

As to `CCOC(=O)COc1cc(C)c(CCN[C@@H](C)[C@H](O)c2ccc(O)cc2)cc1C.Cl` [crystalline form C, ethyl (−)-2-[4-[2-[[(1S,2R)-2-hydroxy-2-(4-hydroxyphenyl)-1-methylethyl]amino]ethyl]-2,5-dimethylphenoxy]-acetate hydrochloride], in data set [1] (setting [3]), the “residual percentage (chemical purity %)” value was “constant”, the appearance entry was “no change in appearance” and the crystal form result is listed as “polymorphic transformation did not occur”. In addition, in data set [1] (setting [4]), the “residual percentage (chemical purity %)” value is 99.6%, the appearance entry is on record as “white” and the crystal form result is “crystal form C”. For the same compound, in data set [1] (at start), the appearance entry was “white”, the “residual percentage (chemical purity %)” value amounted to 99.6% and the crystal form entry is “crystal form C”. Further, in data set [2], the “change of the crystalline form” value is on record as “still crystalline form C”.
